The values below come from US6420388B1, “Osanetant in the treatment of depression and depressive disorders” (Sanofi-Synthelabo, priority 1999, dated 2002).

This assay has as its system major depressive disorders. In words: Effect of osanetant on major depressive disorders in patients. The format is in vivo, human. Particulars: patients 18 to 65 years of age with major depressive disorders; osanetant 200 mg/day for about 6 weeks. The procedure:
The effect of osanetant on major depressive disorders has been investigated in patients of between 18 and 65 years of age. The patients were given osanetant (200 mg/day) for a period of about 6 weeks.

In the case of `CC(=O)N(C)C1(c2ccccc2)CCN(CCC[C@]2(c3ccc(Cl)c(Cl)c3)CCCN(C(=O)c3ccccc3)C2)CC1` [osanetant, (R)-(+)-N-[(3-(1-benzoyl-3-(3,4-dichlorophenyl)piperidin-3-yl)propyl)-4-phenylpiperidin-4-yl]-N-methyl acetamide], the “scores on the Hamilton scale (improvement in the depressive syndrome)” value was “significant reduction”.
